{"source": "paper PMC10954734", "about": "“Structure of antiviral drug bulevirtide bound to hepatitis B and D virus receptor protein NTCP” (Nature Communications, 2024)", "key": {"human NTCP": {"target": "T1, human NTCP (Homo sapiens, UniProt Q14973)", "T1 construct": "The full-length wild-type human NTCP gene (UniProt ID: Q14973); expressed in transfected cells", "T1 sequence (Q14973 1-349)": "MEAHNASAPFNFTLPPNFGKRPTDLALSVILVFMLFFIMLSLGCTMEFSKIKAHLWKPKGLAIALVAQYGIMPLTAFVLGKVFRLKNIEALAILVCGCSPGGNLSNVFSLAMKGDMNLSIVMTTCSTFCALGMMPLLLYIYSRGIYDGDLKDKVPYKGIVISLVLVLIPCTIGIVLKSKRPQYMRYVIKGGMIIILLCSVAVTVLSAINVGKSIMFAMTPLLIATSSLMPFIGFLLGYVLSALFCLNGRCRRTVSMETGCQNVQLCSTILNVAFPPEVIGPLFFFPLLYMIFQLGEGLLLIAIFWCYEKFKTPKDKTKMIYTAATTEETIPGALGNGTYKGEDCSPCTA", "experiment": "preS1-AX568 binding to HEK-NTCP cells (and its inhibition by TC)", "type": "cell-based", "details": "preincubation with 250 µM TC", "procedure": "Human embryonic kidney Flp-In T-Rex 293 cells (Thermo Fisher Scientific, R78007, hereafter referred to as non-NTCP expressing HEK293 cells) stably expressing the human NTCP protein were generated according to the manufacturer’s guidelines as reported before[62] and are hereafter referred to as HEK-NTCP cells. […] For induction of NTCP expression, HEK-NTCP cells were incubated with 1 μg/mL tetracycline (Carl Roth, HP63.1)[62]. […] Inhibitor preincubation was performed over 5 min at 37 °C, consistent with previously published data[64]. Quantification of relative fluorescence was assessed at 570 nm excitation and 615 nm emission on a fluorescence microplate reader (TECAN Life Sciences)."}, "Gly158Arg human NTCP": {"system": "Gly158Arg human NTCP", "details": "ref [54]; cited from earlier work", "source_text": "(§1) We aligned the sequence of human NTCP to that of Cynomolgus monkey and Common squirrel monkey, which are representatives of the Old and New World monkeys, respectively (Fig. 6a and Supplementary Fig. 6)."}, "[1]": {"system": "Gly158Arg Common squirrel monkey NTCP", "details": "ref [54]; cited from earlier work", "source_text": "as §1"}, "[2]": {"system": "SVPs from patient ID1 (HBV GtD)", "experiment": "Binding of nanodisc-reconstituted NTCP-eYFP to SVPs of patient ID1 (GtD)", "details": "25–100 nM", "procedure": "(§2) The lipids were then mixed with detergent-purified NTCP and incubated at room temperature for 5 min with gentle agitation. Next, membrane scaffold protein (MSP1D1) was added to the mixture and incubated for 20 min at room temperature. […] Bio-Beads were removed by passing through a gravity column (Bio-Rad), and the mixture was briefly spun at 4000 × g at 4 °C to remove excess lipids. […] Peak fractions containing nanodisc-reconstituted NTCP were collected and concentrated.\n(§3) Subviral particles (SVPs) were isolated from plasma of two chronic HBV-infected patients by three consecutive ultracentrifugation steps according to published protocols[13]. Briefly, SVP were separated from virions using rate zonal ultracentrifugation through a sucrose density gradient. SVP-containing fractions were pooled and further purified using caesium chloride (CsCl) flotation ultracentrifugation. Pooled SVP-fractions were further purified using a second sucrose density gradient and concentrated by ultrafiltration. […] For fluorescence measurement, 100 μL HBS buffer was added to each well and the fluorescence intensity of eYFP was detected at 485 nm excitation and 535 nm emission on a fluorescence microplate reader (TECAN Life Sciences)."}, "[3]": {"system": "SVPs from patient K826 (HBV GtA)", "experiment": "Binding of nanodisc-reconstituted NTCP-eYFP to SVPs of patient K826 (GtA)", "details": "25–100 nM", "procedure": "as §2, §3"}}}
{"compound": "C[C@H](CCC(=O)NCCS(=O)(=O)O)[C@H]1CC[C@H]2[C@@H]3[C@H](O)C[C@@H]4C[C@H](O)CC[C@]4(C)[C@H]3C[C@H](O)[C@]12C", "note": "[TC, taurocholic acid]", "values": [{"measurement": "block of preS1-AX568 binding to NTCP (in words)", "setting": "human NTCP", "result": "can be blocked"}, {"measurement": "TC transport, effect of Gly158Arg mutation", "setting": "Gly158Arg human NTCP", "result": "maintaining the transport activity of NTCP for TC"}, {"measurement": "TC transport, effect of Gly158Arg mutation", "setting": "[1]", "result": "maintaining the transport activity of NTCP for TC"}]}
{"compound": "NTCP: nanodisc-reconstituted, eYFP-labeled wild-type human NTCP", "values": [{"measurement": "binding to GtD SVPs (in words)", "setting": "[2]", "result": "concentration-dependent binding"}, {"measurement": "binding to GtA SVPs (in words)", "setting": "[3]", "result": "concentration-dependent binding"}]}
